Reference: ChEMBL document CHEMBL1201861, “Genomics of Drug Sensitity in Cancer screening data, Wellcome Trust Sanger Institute”

Experiments:
Test in all cases: cells
NCI-H1648 = type: functional, cell-based, Homo sapiens; conditions: Homo sapiens, NCI-H1648;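 also: cell viability assay measuring inhibition of NCI-H1648 cell growth, from the Sanger screening data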
Description: SANGER: Inhibition of human NCI-H1648 cell growth in a cell viability assay.

S-117 = type: functional, cell-based, Homo sapiens; conditions: Homo sapiens, S-117
Description: SANGER: Inhibition of human S-117 cell growth in a cell viability assay.

TK-10 = type: functional, cell-based, Homo sapiens; conditions: Homo sapiens, TK-10;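 also: growth inhibition of TK-10 cells, read out in a cell viability assay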
Description: SANGER: Inhibition of human TK10 cell growth in a cell viability assay.

SK-PN-DW = type: functional, cell-based; conditions: Homo sapiens;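 also: growth inhibition measured with a viability assay on these cells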
Description: SANGER: Inhibition of human SK-PN-DW cell growth in a cell viability assay.

MKN-1 = type: functional, cell-based, Homo sapiens; conditions: Homo sapiens, MKN-1;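 also: growth inhibition of human MKN1 cells, read out by a cell viability measurement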
Description: SANGER: Inhibition of human MKN1 cell growth in a cell viability assay.

NB6 = type: functional, cell-based, Homo sapiens; conditions: Homo sapiens, NB6;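 also: growth inhibition of NB6 cells, read out by a cell viability assay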
Description: SANGER: Inhibition of human NB6 cell growth in a cell viability assay.

NCI-H1755 = type: functional, cell-based, Homo sapiens; conditions: Homo sapiens, NCI-H1755;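 also: cell viability readout used to measure growth inhibition of NCI-H1755 cells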
Description: SANGER: Inhibition of human NCI-H1755 cell growth in a cell viability assay.

NCI-H720 = type: functional, cell-based; conditions: Homo sapiens;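 also: growth inhibition of human NCI-H720 cells determined by a cell viability assay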
Description: SANGER: Inhibition of human NCI-H720 cell growth in a cell viability assay.

HCT-116 = type: functional, cell-based, Homo sapiens; conditions: Homo sapiens, HCT-116
Description: SANGER: Inhibition of human HCT-116 cell growth in a cell viability assay.

SK-HEP1 = type: functional, cell-based, Homo sapiens, SK-HEP-1; conditions: Homo sapiens, SK-HEP1;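 also: cell viability readout used to quantify reduction in proliferation of human SK-HEP-1 cells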
Description: SANGER: Inhibition of human SK-HEP-1 cell growth in a cell viability assay.

HOS = type: functional, cell-based, Homo sapiens; conditions: Homo sapiens, HOS;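 also: growth inhibition of human HOS cells, read out with a cell viability assay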
Description: SANGER: Inhibition of human HOS cell growth in a cell viability assay.

NCI-H441 = type: functional, cell-based; conditions: Homo sapiens;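 also: growth inhibition of NCI-H441 cells, read out with a cell viability assay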
Description: SANGER: Inhibition of human NCI-H441 cell growth in a cell viability assay.

T47D = type: functional, cell-based, Homo sapiens; conditions: Homo sapiens, T47D;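 also: growth inhibition of human T47D cells, measured with a cell viability assay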
Description: SANGER: Inhibition of human T47D cell growth in a cell viability assay.

ES5 = type: functional, cell-based, Homo sapiens; conditions: Homo sapiens, ES5;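 also: growth inhibition of human ES5 cells, read out by a cell viability assay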
Description: SANGER: Inhibition of human ES5 cell growth in a cell viability assay.

HMV-2 cell line = type: functional, cell-based, Homo sapiens; conditions: Homo sapiens, HMV-2;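 also: growth inhibition of HMV-II cells, read out with a cell viability assay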
Description: SANGER: Inhibition of human HMV-II cell growth in a cell viability assay.

HOP-92 = type: functional, cell-based, Homo sapiens; conditions: Homo sapiens, HOP-92;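 also: cell viability readout, with IC50 reflecting inhibition of HOP-92 cell growth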
Description: SANGER: Inhibition of human HOP-92 cell growth in a cell viability assay.

SHP77 = type: functional, cell-based, Homo sapiens, SHP-77; conditions: Homo sapiens, SHP77;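 also: growth inhibition of human SHP-77 cells measured by a cell viability assay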
Description: SANGER: Inhibition of human SHP-77 cell growth in a cell viability assay.

QIMR-WIL = type: functional, cell-based; conditions: Homo sapiens;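 also: growth inhibition of QIMR-WIL cells, read out with a cell viability assay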
Description: SANGER: Inhibition of human QIMR-WIL cell growth in a cell viability assay.

KYSE-270 = type: functional, cell-based, Homo sapiens; conditions: Homo sapiens, KYSE-270;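 also: cell growth inhibition measured with a viability assay in the human KYSE-270 line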
Description: SANGER: Inhibition of human KYSE-270 cell growth in a cell viability assay.

SNU-5 = type: functional, cell-based; conditions: Homo sapiens;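 also: cell viability readout used to measure growth inhibition in human NCI-SNU-5 cells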
Description: SANGER: Inhibition of human NCI-SNU-5 cell growth in a cell viability assay.

CTB-1 = type: functional, cell-based; conditions: Homo sapiens
Description: SANGER: Inhibition of human CTB-1 cell growth in a cell viability assay.

GB-1 = type: functional, cell-based, Homo sapiens; conditions: Homo sapiens, GB-1;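 also: growth of GB-1 cells judged by a viability assay, IC50 marks the concentration inhibiting growth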
Description: SANGER: Inhibition of human GB-1 cell growth in a cell viability assay.

HCC1954 = type: functional, cell-based, Homo sapiens; conditions: Homo sapiens, HCC1954;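 also: growth inhibition of human HCC1954 cells, read out with a cell viability assay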
Description: SANGER: Inhibition of human HCC1954 cell growth in a cell viability assay.

GR-ST = type: functional, cell-based; conditions: Homo sapiens
Description: SANGER: Inhibition of human GR-ST cell growth in a cell viability assay.

SH-4 = type: functional, cell-based, Homo sapiens; conditions: Homo sapiens, SH-4;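 also: growth inhibition of SH-4 cells, read out with a cell viability assay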
Description: SANGER: Inhibition of human SH-4 cell growth in a cell viability assay.

NCI-H1155 = type: functional, cell-based; conditions: Homo sapiens;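 also: cell growth inhibition measured by a viability assay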
Description: SANGER: Inhibition of human NCI-H1155 cell growth in a cell viability assay.

NCI-H1792 = type: functional, cell-based, Homo sapiens; conditions: Homo sapiens, NCI-H1792;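 also: growth inhibition of human NCI-H1792 cells, read out as cell viability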
Description: SANGER: Inhibition of human NCI-H1792 cell growth in a cell viability assay.

TE-11 = type: functional, cell-based, Homo sapiens; conditions: Homo sapiens, TE-11;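 also: growth inhibition of human TE-11 cells, read out by a cell viability assay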
Description: SANGER: Inhibition of human TE-11 cell growth in a cell viability assay.

SW1573 = type: functional, cell-based, Homo sapiens; conditions: Homo sapiens, SW1573;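 also: growth inhibition of SW1573 cells, read out with a cell viability assay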
Description: SANGER: Inhibition of human SW1573 cell growth in a cell viability assay.

ACN = type: functional, cell-based, Homo sapiens; conditions: Homo sapiens, ACN;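 also: growth inhibition of the human ACN cell line, read out via cell viability testing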
Description: SANGER: Inhibition of human ACN cell growth in a cell viability assay.

HL-60 = type: functional, cell-based; conditions: Homo sapiens;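 also: growth inhibition of human HL-60 cells, read out with a cell viability assay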
Description: SANGER: Inhibition of human HL-60 cell growth in a cell viability assay.

no-11 = type: functional, cell-based, Homo sapiens; conditions: Homo sapiens;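 also: growth inhibition of human NO-11 cells, read out with a cell viability assay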
Description: SANGER: Inhibition of human no-11 cell growth in a cell viability assay.

HCE-4 = type: functional, cell-based, Homo sapiens; conditions: Homo sapiens, HCE-4;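 also: cell viability assay measuring inhibition of growth in the human HCE-4 cell line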
Description: SANGER: Inhibition of human HCE-4 cell growth in a cell viability assay.

A388 = type: functional, cell-based, Homo sapiens; conditions: Homo sapiens, A388;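 also: growth inhibition of human A388 cells, read out with a cell viability assay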
Description: SANGER: Inhibition of human A388 cell growth in a cell viability assay.

MKN-7 = type: functional, cell-based, Homo sapiens; conditions: Homo sapiens, MKN-7;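 also: growth inhibition of MKN-7 cells, read out with a cell viability assay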
Description: SANGER: Inhibition of human MKN7 cell growth in a cell viability assay.

Calu-3 = type: functional, cell-based, Homo sapiens; conditions: Homo sapiens, Calu-3;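 also: growth inhibition of human Calu-3 cells, determined with a cell viability assay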
Description: SANGER: Inhibition of human Calu-3 cell growth in a cell viability assay.

COLO-792 = type: functional, cell-based, Homo sapiens; conditions: Homo sapiens, COLO-792
Description: SANGER: Inhibition of human COLO-792 cell growth in a cell viability assay.

HEL = type: functional, cell-based, Homo sapiens; conditions: Homo sapiens, HEL;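 also: growth inhibition of HEL cells, read out with a cell viability assay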
Description: SANGER: Inhibition of human HEL cell growth in a cell viability assay.

GOTO = type: functional, cell-based, Homo sapiens; conditions: Homo sapiens, GOTO;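 also: growth inhibition of GOTO cells, read out by a cell viability assay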
Description: SANGER: Inhibition of human GOTO cell growth in a cell viability assay.

BCPAP = type: functional, cell-based, Homo sapiens; conditions: Homo sapiens, BCPAP;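 also: growth inhibition of BCPAP cells, read out in a cell viability assay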
Description: SANGER: Inhibition of human BCPAP cell growth in a cell viability assay.

KP-4 = type: functional, cell-based, Homo sapiens; conditions: Homo sapiens, KP-4; read-out: IC50;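 also: human KP-4 cells, with growth inhibition read out through a cell viability assay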
Description: SANGER: Inhibition of human KP-4 cell growth in a cell viability assay.

SK-MEL-2 = type: functional, cell-based, Homo sapiens; conditions: Homo sapiens, SK-MEL-2;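 also: growth inhibition of human SK-MEL-2 cells measured with a cell viability assay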
Description: SANGER: Inhibition of human SK-MEL-2 cell growth in a cell viability assay.

NB12 = type: functional, cell-based, Homo sapiens; conditions: Homo sapiens, NB12;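 also: growth inhibition of human NB12 cells, read out by a cell viability assay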
Description: SANGER: Inhibition of human NB12 cell growth in a cell viability assay.

NCI-H2122 = type: functional, cell-based, Homo sapiens; conditions: Homo sapiens, NCI-H2122;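 also: growth inhibition of the cells, read out with a cell viability assay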
Description: SANGER: Inhibition of human NCI-H2122 cell growth in a cell viability assay.

ESS-1 = type: functional, cell-based, Homo sapiens; conditions: Homo sapiens, ESS-1;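 also: growth inhibition of human ESS-1 cells, read out by a cell viability assay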
Description: SANGER: Inhibition of human ESS-1 cell growth in a cell viability assay.

T-24 = type: functional, cell-based, Homo sapiens; conditions: Homo sapiens, T-24;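 also: growth inhibition of T-24 cells, read out with a cell viability assay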
Description: SANGER: Inhibition of human T-24 cell growth in a cell viability assay.

SW982 = type: functional, cell-based; conditions: Homo sapiens;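 also: growth inhibition of SW982 cells, read out with a cell viability assay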
Description: SANGER: Inhibition of human SW982 cell growth in a cell viability assay.

LU-139 = type: functional, cell-based; conditions: Homo sapiens
Description: SANGER: Inhibition of human LU-139 cell growth in a cell viability assay.

NCI-H2228 = type: functional, cell-based, Homo sapiens; conditions: Homo sapiens, NCI-H2228;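 also: growth inhibition of human NCI-H2228 cells, read out by a cell viability assay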
Description: SANGER: Inhibition of human NCI-H2228 cell growth in a cell viability assay.

ES7 = type: functional, cell-based, Homo sapiens; conditions: Homo sapiens, ES7;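 also: growth inhibition of cultured human ES7 cells, read out as cell viability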
Description: SANGER: Inhibition of human ES7 cell growth in a cell viability assay.

KINGS-1 = type: functional, cell-based, Homo sapiens; conditions: Homo sapiens, KINGS-1;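 also: cell viability assay measuring suppression of KINGS-1 cell growth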
Description: SANGER: Inhibition of human KINGS-1 cell growth in a cell viability assay.

NCI-H2052 = type: functional, cell-based, Homo sapiens; conditions: Homo sapiens, NCI-H2052;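 also: growth inhibition of NCI-H2052 cells, read out with a cell viability assay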
Description: SANGER: Inhibition of human NCI-H2052 cell growth in a cell viability assay.

C=CCNC1=C2C[C@@H](C)C[C@H](OC)[C@H](O)[C@@H](C)/C=C(\C)[C@H](OC(N)=O)[C@@H](OC)/C=C\C=C(/C)C(=O)NC(=CC1=O)C2=O [TANESPIMYCIN]
IC50 (NCI-H1648): 0.152 µM
IC50 (S-117): 0.206 µM
IC50 (TK-10): 0.231 µM
IC50 (SK-PN-DW): > 1 µM
IC50 (MKN-1): 0.588 µM
IC50 (NB6): > 1 µM
IC50 (NCI-H1755): 0.0634 µM
IC50 (NCI-H720): 0.0255 µM
IC50 (HCT-116): 0.266 µM
IC50 (SK-HEP1): > 1 µM
IC50 (HOS): 0.417 µM
IC50 (NCI-H441): > 1 µM
IC50 (T47D): > 1 µM
IC50 (ES5): > 1 µM
IC50 (HMV-2 cell line): 0.12 µM
IC50 (HOP-92): > 1 µM
IC50 (SHP77): 0.905 µM
IC50 (QIMR-WIL): 0.851 µM
IC50 (KYSE-270): 0.231 µM
IC50 (SNU-5): 0.305 µM
IC50 (CTB-1): 0.328 µM
IC50 (GB-1): > 1 µM
IC50 (HCC1954): > 1 µM
IC50 (GR-ST): > 1 µM
IC50 (SH-4): 0.114 µM
IC50 (NCI-H1155): 0.262 µM
IC50 (NCI-H1792): 0.0962 µM
IC50 (TE-11): 0.08 µM
IC50 (SW1573): 0.148 µM
IC50 (ACN): 0.0416 µM
IC50 (HL-60): > 1 µM
IC50 (no-11): 0.37 µM
IC50 (HCE-4): 0.474 µM
IC50 (A388): 0.765 µM
IC50 (MKN-7): > 1 µM
IC50 (Calu-3): > 1 µM
IC50 (COLO-792): 0.313 µM
IC50 (HEL): > 1 µM
IC50 (GOTO): 0.452 µM
IC50 (BCPAP): 0.189 µM
IC50 (KP-4): 0.0475 µM
IC50 (SK-MEL-2): 0.0906 µM
IC50 (NB12): > 1 µM
IC50 (NCI-H2122): 0.0974 µM
IC50 (ESS-1): 0.248 µM
IC50 (T-24): 0.332 µM
IC50 (SW982): 0.03 µM
IC50 (LU-139): > 1 µM
IC50 (NCI-H2228): 0.354 µM
IC50 (ES7): > 1 µM
IC50 (KINGS-1): 0.245 µM
IC50 (NCI-H2052): > 1 µM

Cn1cncc1[C@@](N)(c1ccc(Cl)cc1)c1ccc2c(c1)c(-c1cccc(Cl)c1)cc(=O)n2C [TIPIFARNIB]
IC50 (NCI-H1648): 2.56 µM
IC50 (S-117): 9.59 µM
IC50 (TK-10): 5.68 µM
IC50 (SK-PN-DW): 15.5 µM
IC50 (MKN-1): 1.88 µM
IC50 (NB6): > 16 µM
IC50 (NCI-H1755): > 16 µM
IC50 (NCI-H720): > 16 µM
IC50 (HCT-116): 4.88 µM
IC50 (SK-HEP1): 0.714 µM
IC50 (HOS): 4.1 µM
IC50 (NCI-H441): 13.6 µM
IC50 (T47D): > 16 µM
IC50 (ES5): > 16 µM
IC50 (HMV-2 cell line): 0.216 µM
IC50 (HOP-92): 9.13 µM
IC50 (SHP77): 9.94 µM
IC50 (QIMR-WIL): 0.0163 µM
IC50 (KYSE-270): 0.217 µM
IC50 (SNU-5): > 16 µM
IC50 (CTB-1): 7.81 µM
IC50 (GB-1): 3.7 µM
IC50 (HCC1954): 14.3 µM
IC50 (GR-ST): 2.87 µM
IC50 (SH-4): 1.3 µM
IC50 (NCI-H1155): > 16 µM
IC50 (NCI-H1792): > 16 µM
IC50 (TE-11): 1.69 µM
IC50 (SW1573): > 16 µM
IC50 (ACN): 1.46 µM
IC50 (HL-60): 6.93 µM
IC50 (no-11): 4.01 µM
IC50 (HCE-4): 3.04 µM
IC50 (A388): 0.865 µM
IC50 (MKN-7): > 16 µM
IC50 (Calu-3): 4.43 µM
IC50 (COLO-792): 12.2 µM
IC50 (HEL): 0.394 µM
IC50 (GOTO): > 16 µM
IC50 (BCPAP): 1.32 µM
IC50 (KP-4): 13.6 µM
IC50 (SK-MEL-2): 0.484 µM
IC50 (NB12): 7.99 µM
IC50 (NCI-H2122): 0.191 µM
IC50 (ESS-1): > 16 µM
IC50 (T-24): 13.9 µM
IC50 (SW982): > 16 µM
IC50 (LU-139): > 16 µM
IC50 (NCI-H2228): 4.98 µM
IC50 (ES7): 1.47 µM
IC50 (KINGS-1): > 16 µM
IC50 (NCI-H2052): > 16 µM
